# In PubChem BioAssay AID1963968 (Molecular Pharmacology Branch, DTP, NCI, 2024):
# Tested on: 945468-187-T-J3-PDC spheroids with HUVEC/MSC, viability
# Experiment: Anticancer human tumor 945468-187-T-J3-PDC patient-derived rectal carcinoma cell line growth inhibition [PI3K]
# Details: for IC50: curve of first compound; for viability, T/C: stronger effect = lower value
# In short: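 Spheroid viability read-out. Co-cultures contained the tumor line plus HUVEC and human MSCs. Each agent was paired with a PI3K inhibitor (inavolisib, alpelisib, duvelisib, copanlisib) across half-log dilutions starting at clinical Cmax, or at 10 microM when Cmax was unknown.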
# [1] = second compound 0.0316 µM, first compound 0.0316 µM
# [2] = second compound 0.0316 µM, first compound 0.1 µM
# [3] = second compound 0.0316 µM, first compound 0.316 µM
# [4] = second compound 0.0316 µM, first compound 1 µM
# [5] = second compound 0.0316 µM, first compound 3.16 µM
# [6] = second compound 0.0316 µM, first compound 10 µM
# [7] = second compound 0.1 µM, first compound 0.0316 µM
# [8] = second compound 0.1 µM, first compound 0.1 µM
# [9] = second compound 0.1 µM, first compound 0.316 µM
# [10] = second compound 0.1 µM, first compound 1 µM
# [11] = second compound 0.1 µM, first compound 3.16 µM
# [12] = second compound 0.1 µM, first compound 10 µM
# [13] = second compound 0.316 µM, first compound 0.0316 µM
# [14] = second compound 0.316 µM, first compound 0.1 µM
# [15] = second compound 0.316 µM, first compound 0.316 µM
# [16] = second compound 0.316 µM, first compound 1 µM
# [17] = second compound 0.316 µM, first compound 3.16 µM
# [18] = second compound 0.316 µM, first compound 10 µM
# [19] = second compound 1 µM, first compound 0.0316 µM
# [20] = second compound 1 µM, first compound 0.1 µM
# [21] = second compound 1 µM, first compound 0.316 µM
# [22] = second compound 1 µM, first compound 1 µM
# [23] = second compound 1 µM, first compound 3.16 µM
# [24] = second compound 1 µM, first compound 10 µM
# [25] = second compound 3.16 µM, first compound 0.0316 µM
# [26] = second compound 3.16 µM, first compound 0.1 µM
# [27] = second compound 3.16 µM, first compound 0.316 µM
# [28] = second compound 3.16 µM, first compound 1 µM
# [29] = second compound 3.16 µM, first compound 3.16 µM
# [30] = second compound 3.16 µM, first compound 10 µM
# [31] = second compound 10 µM, first compound 0.0316 µM
# [32] = second compound 10 µM, first compound 0.1 µM
# [33] = second compound 10 µM, first compound 0.316 µM
# [34] = second compound 10 µM, first compound 1 µM
# [35] = second compound 10 µM, first compound 3.16 µM
# [36] = second compound 10 µM, first compound 10 µM
# 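Also: spheroids exposed to agents for 7 days before viability read.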
# 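For viability, T/C in this document: 100% = DMSO vehicle control viability.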
structure (smiles),measurement,setting,value
C#Cc1c(F)ccc2cc(O)cc(-c3ncc4c(N5CC6CCC(C5)N6)nc(OCC56CCCN5CC(F)C6)nc4c3F)c12 (stereo unspecified) + Cc1nc(NC(=O)N2CCCC2C(N)=O)sc1-c1ccnc(C(C)(C)C(F)(F)F)c1,IC50,second compound 0.0316 µM,> 10 µM
same,IC50,second compound 0.1 µM,> 10 µM
same,IC50,second compound 0.316 µM,> 10 µM
same,IC50,second compound 1 µM,> 10 µM
same,IC50,second compound 3.16 µM,7.25 µM
same,IC50,second compound 10 µM,0.464 µM
same,"viability, T/C",[1],96.8%
same,"viability, T/C",[2],101%
same,"viability, T/C",[3],95.4%
same,"viability, T/C",[4],107%
same,"viability, T/C",[5],127%
same,"viability, T/C",[6],119%
same,"viability, T/C",[7],105%
same,"viability, T/C",[8],115%
same,"viability, T/C",[9],101%
same,"viability, T/C",[10],113%
same,"viability, T/C",[11],132%
same,"viability, T/C",[12],115%
same,"viability, T/C",[13],109%
same,"viability, T/C",[14],105%
same,"viability, T/C",[15],97.6%
same,"viability, T/C",[16],113%
same,"viability, T/C",[17],134%
same,"viability, T/C",[18],118%
same,"viability, T/C",[19],114%
same,"viability, T/C",[20],110%
same,"viability, T/C",[21],109%
same,"viability, T/C",[22],112%
same,"viability, T/C",[23],127%
same,"viability, T/C",[24],106%
same,"viability, T/C",[25],107%
same,"viability, T/C",[26],110%
same,"viability, T/C",[27],111%
same,"viability, T/C",[28],103%
same,"viability, T/C",[29],80.9%
same,"viability, T/C",[30],38%
same,"viability, T/C",[31],70.4%
same,"viability, T/C",[32],59.9%
same,"viability, T/C",[33],50%
same,"viability, T/C",[34],47.8%
same,"viability, T/C",[35],26.9%
same,"viability, T/C",[36],9.1%
CC(Cn1ccc(-c2ccc(C#N)c(Cl)c2)n1)NC(=O)c1cc(C(C)O)[nH]n1 (stereo unspecified) + Cc1nc(NC(=O)N2CCCC2C(N)=O)sc1-c1ccnc(C(C)(C)C(F)(F)F)c1,IC50,second compound 0.0316 µM,> 10 µM
same,IC50,second compound 0.1 µM,> 10 µM
same,IC50,second compound 0.316 µM,> 10 µM
same,IC50,second compound 1 µM,> 10 µM
same,IC50,second compound 3.16 µM,> 10 µM
same,IC50,second compound 10 µM,> 10 µM
same,"viability, T/C",[1],99.7%
same,"viability, T/C",[2],104%
same,"viability, T/C",[3],90.9%
same,"viability, T/C",[4],93.4%
same,"viability, T/C",[5],102%
same,"viability, T/C",[6],92.7%
same,"viability, T/C",[7],106%
same,"viability, T/C",[8],101%
same,"viability, T/C",[9],91.9%
same,"viability, T/C",[10],109%
same,"viability, T/C",[11],106%
same,"viability, T/C",[12],96.9%
same,"viability, T/C",[13],95.6%
same,"viability, T/C",[14],102%
same,"viability, T/C",[15],93.8%
same,"viability, T/C",[16],108%
same,"viability, T/C",[17],98.8%
same,"viability, T/C",[18],88.1%
same,"viability, T/C",[19],112%
same,"viability, T/C",[20],109%
same,"viability, T/C",[21],98.1%
same,"viability, T/C",[22],112%
same,"viability, T/C",[23],100%
same,"viability, T/C",[24],98.8%
same,"viability, T/C",[25],104%
same,"viability, T/C",[26],102%
same,"viability, T/C",[27],92.5%
same,"viability, T/C",[28],91.7%
same,"viability, T/C",[29],101%
same,"viability, T/C",[30],104%
same,"viability, T/C",[31],65.3%
same,"viability, T/C",[32],58.1%
same,"viability, T/C",[33],53.7%
same,"viability, T/C",[34],60.2%
same,"viability, T/C",[35],54.4%
same,"viability, T/C",[36],63%
CC1(C)CCC(Nc2ncc(C(F)(F)F)c(-c3c[nH]c4c(P(C)(C)=O)c(C#N)ccc34)n2)CN1 (stereo unspecified) + Cc1nc(NC(=O)N2CCCC2C(N)=O)sc1-c1ccnc(C(C)(C)C(F)(F)F)c1,IC50,second compound 0.0316 µM,5.65 µM
same,IC50,second compound 0.1 µM,5.41 µM
same,IC50,second compound 0.316 µM,5.06 µM
same,IC50,second compound 1 µM,4.44 µM
same,IC50,second compound 3.16 µM,1.9 µM
same,IC50,second compound 10 µM,0.841 µM
same,"viability, T/C",[1],81.7%
same,"viability, T/C",[2],84.6%
same,"viability, T/C",[3],72.8%
same,"viability, T/C",[4],85.5%
same,"viability, T/C",[5],101%
same,"viability, T/C",[6],15.4%
same,"viability, T/C",[7],91.4%
same,"viability, T/C",[8],75.8%
same,"viability, T/C",[9],79%
same,"viability, T/C",[10],79.9%
same,"viability, T/C",[11],84.4%
same,"viability, T/C",[12],13.2%
same,"viability, T/C",[13],82.5%
same,"viability, T/C",[14],75.5%
same,"viability, T/C",[15],65.4%
same,"viability, T/C",[16],75.9%
same,"viability, T/C",[17],85%
same,"viability, T/C",[18],11.2%
same,"viability, T/C",[19],107%
same,"viability, T/C",[20],76.7%
same,"viability, T/C",[21],72.2%
same,"viability, T/C",[22],86.7%
same,"viability, T/C",[23],68%
same,"viability, T/C",[24],7.36%
same,"viability, T/C",[25],78.5%
same,"viability, T/C",[26],72.2%
same,"viability, T/C",[27],75.5%
same,"viability, T/C",[28],54.8%
same,"viability, T/C",[29],44.5%
same,"viability, T/C",[30],5.2%
same,"viability, T/C",[31],65.1%
same,"viability, T/C",[32],60%
same,"viability, T/C",[33],50.6%
same,"viability, T/C",[34],44.5%
same,"viability, T/C",[35],40.2%
same,"viability, T/C",[36],2.06%
